Laboratory results as given in patent publication US7271198B2, “Method of treating autoimmune diseases” (Wake Forest University, priority 2000, dated 2007).

Key:
IL-10 mRNA [1] = assay: RT-PCR of IL-10 transcript in SLE T cells; assay type: cell-based, human
Procedure: T cells were cultured in the absence or presence of increasing concentrations of TSA for 18 hr in 5% CO2 at 37° C. RNA was isolated, cDNAs were prepared, and RT-PCR was performed as previously detailed (D. Laxminarayana, et al., J. Clin. Invest. 92, 2207 (1993)). The primers used were: […]
The reaction mixtures were subjected to 30 cycles of denaturation (94° C., 1 min) and annealing for 1 min at 53° C. (CD154), […] (GAPDH) and 55° C. (IL-10 and IFN-γ). Extension was for 2 min at 72° C. with a final extension of 7 min at 72° C. using a DNA thermal cycler (Perkin-Elmer).
To determine whether TSA could down-regulate IL-10, a dose-response analysis was performed. […] However, when SLE T cells were cultured in the presence of TSA for 18 hr, no detectable IL-10 transcripts were identified (FIG. 2C, lanes 3, 6, 9). When IL-10 transcripts from all eight SLE subjects were quantified relative to GAPDH transcripts, TSA inhibited expression of IL-10 mRNA by 71% (FIG. 2D; P=0.029). […] IL-10 and IFN-γ protein production were quantified by ELISA (R & D Systems, Minneapolis, Minn.). […] Thus, like CD154, TSA was able to block expression of IL-10 transcript, abolishing IL-10 production by SLE T cells.

TGF-β1 mRNA = assay: PCR of TGF-β1 mRNA in SLE and control T cells / PBMCs; assay type: cell-based, human
Procedure: Gene expression of TGF-β1 was tested to determine if the gene expression is suppressed by deacetylation of histones in SLE. In this determination, SLE PBMCs or isolated T cells were treated with the histone deacetylase inhibitors (HDIs), TSA or SAHA, for 18hr. […] Subsequently, semi-quantitative PCR was performed to determine the amounts of […] transcripts in SLE and control T cells treated with vehicle or TSA (1000 ng/ml). […] There is no change in GAPDH transcript in normal and SLE T cells after treatment of HDIs. Increased TGF-β1 transcript was associated with a subsequent increase in TGF-β1 protein secretion by SLE PBMCs. When compared to vehicle treated PBMCs, total TGF-β1 protein in culture supernatants from SLE PBMCs increased by approximately 30%. In contrast, there was no increase in total TGF-β1 secretion in TSA treated cells in normal healthy controls. Similar results may be obtained by SAHA.

IFN-γ mRNA = IFN-γ mRNA in MRL/lpr splenocytes; assay type: cell-based, mouse
Procedure: In determining whether TSA can down-regulate IFN-γ mRNA, splenocytes from older, 24-wk MRL/lpr mice were treated with 0 to 500 ng/ml of TSA for 18 hr. […] Compared to splenocytes from 10-wk old mice that had low IFN-γ mRNA (FIG. 8B, lane 1), older mice had higher constitutive levels of IFN-γ transcripts normalized to the housekeeping gene, GAPDH (FIG. 8A, lane 1). […] Maximal inhibition of IFN-γ transcript consistently occurred at 500 ng/ml of TSA.
To establish whether TSA or SAHA down-regulates Con A-induced IFN-γ mRNA expression, splenocytes from 10-wk old mice were stimulated with Con A (10 μg/ml) for 18 hr. From previous kinetic studies, IFN-γ mRNA is maximally expressed when T cells are activated for 18 hr. […] Thus, both TSA and SAHA inhibit IFN-γ. mRNA up-regulation in response to mitogenic stimulation.

IFN-γ protein = IFN-γ protein secretion by MRL/lpr splenocytes; assay type: cell-based, mouse; conditions: Con A-stimulated splenocytes from younger MRL/lpr mice, 72 hr; p=0.004
Source text: The marked inhibition of IFN-γ transcript by these inhibitors prompted us to quantify IFN-γ protein secretion in splenocyte culture supernatants. Over 72 hr, Con A, but not LPS, stimulated splenocytes from younger MRL/lpr mice to secrete a mean (±SEM) 1,563.2±88.3 pg/ml of IFN-γ (FIG. 8D). […] Thus, inhibition of IFN-γ transcription by TSA and SAHA blocks secretion of IFN-γ protein by splenocytes.

IL-10 mRNA [2] = assay: IL-10 mRNA in MRL/lpr splenocytes; assay type: cell-based, mouse
Procedure: In investigating whether TSA down-regulates IL-10 mRNA, MRL/lpr splenocytes were treated with increasing concentrations of TSA. The heightened, constitutive expression of IL-10 mRNA confirms previous findings (FIGS. 11A & 11B, lane 1). […] To address whether TSA and SAHA down-regulate LPS- and IFN-γ induced IL-10 transcript, splenocytes from 10-wk old MRL/lpr mice were treated in the absence or presence of TSA or SAHA for 18 hr before LPS and IFN-γ stimulation for 6 or 18 hr.

IL-10 protein = IL-10 protein secretion by MRL/lpr splenocytes; assay type: cell-based, mouse; conditions: MRL/lpr splenocytes stimulated by LPS, Con A, or LPS+IFN-γ, 72 hr
Source text: To determine the effect of TSA and SAHA on IL-10 protein secretion, MRL/lpr splenocytes were stimulated with Con A, LPS, or LPS+IFN-γ for 72 hr in the absence or presence of TSA or SAHA. As shown in the FIG. 11D, splenocytes stimulated with Con A, LPS, or LPS+IFN-γ secreted a mean (±SEM) of 31.8±4.5, 32.3±1.9, and 34.8±4.9 pg/ml, respectively, of IL-10 protein.

iNOS mRNA = iNOS mRNA induction in MRL/lpr splenocytes; assay type: cell-based, mouse; conditions: splenocytes from 10 wk old mice, LPS and IFN-γ 24 hr
Source text: Excessive production of nitric oxide (NO) is crucial to the initiation and maintenance of glomerulonephritis in MRL/lpr mice. Pharmacologic inhibition of NO synthesis in MRL/lpr mice abrogates disease progression. In examining whether HDIs could suppress inducible nitric oxide synthetase (iNOS), splenocytes from 10 wk old mice were stimulated in the presence or absence of TSA or SAHA with LPS and IFN-γ for 24 hr. […] To determine whether HDIs could suppress nitric oxide secretion by mesangial cells, mesangial cells were stimulated with LPS ([…]) in the presence of vehicle or TSA for 24 hr. The supernatant from the cell culture was assayed for nitric oxide.

Q: Which “TSA concentration at which no detectable IL-10 mRNA was identified” value (IL-10 mRNA [1]; SLE T cells, dose-response, RT-PCR) does the source give for CC(/C=C/C(=O)NO)=C\[C@@H](C)C(=O)c1ccc(N(C)C)cc1 [TSA, Trichostatin A] here?
A: 700 to 800 ng/mL

Q: What about the “inhibition of expression of IL-10 mRNA” value (IL-10 mRNA [1]; eight SLE subjects, TSA 1000 ng/ml 18 hr, relative to GAPDH, P=0.029) of the same compound?
A: 71%

Q: What about the “increase in TGF-β1 transcript” value (TGF-β1 mRNA; SLE PBMCs exposed to TSA and SAHA (summary statement)) of the same compound?
A: eight-fold

Q: What about the “induction of TGF-β1 mRNA compared to vehicle treated cells” value (TGF-β1 mRNA; SLE T cells, 1000 ng/ml TSA, 18 hr, real time PCR) of the same compound?
A: 8 fold

Q: And the “TGF-β1 mRNA levels, semi-quantitative PCR” value (TGF-β1 mRNA; SLE T cells, TSA 1000 ng/ml)?
A: increased

Q: What about the “TGF-β1 mRNA change” value (TGF-β1 mRNA; SLE T cells, TSA concentrations to 500 ng/ml) of the same compound?
A: modest increase

Q: What about the “Con A-induced up-regulation of IFN-γ transcript” value (IFN-γ mRNA; splenocytes from 10-wk old mice preincubated 18 hr, Con A 10 μg/ml 18 hr, vs vehicle) of the same compound?
A: markedly reduced

Q: And the “TSA concentration of maximal inhibition of IFN-γ transcript” value (IFN-γ mRNA; splenocytes from 24-wk MRL/lpr mice, 0 to 500 ng/ml TSA, 18 hr)?
A: 500 ng/mL

Q: What about the IFN-γ protein secretion (IFN-γ protein) of the same compound?
A: did not secrete detectable levels

Q: And the “TSA dose that down-regulated IL-10 mRNA” value (IL-10 mRNA [2]; MRL/lpr splenocytes, constitutive expression)?
A: 300 ng/mL

Q: What about the “LPS- and IFN-γ induced IL-10 mRNA” value (IL-10 mRNA [2]; splenocytes from 10-wk old MRL/lpr mice pretreated 18 hr, stimulated 6 or 18 hr) of the same compound?
A: no detectable IL-10 mRNA

Q: What about the IL-10 protein secretion (IL-10 protein) of the same compound?
A: no detectable IL-10 secretion

Q: What about the “iNOS mRNA induction” value (iNOS mRNA) of the same compound?
A: able to suppress iNOS mRNA induction
